Test results taken from patent US20240238423A9, “TETRAHYDROISOQUINOLINE HETEROBIFUNCTIONAL BCL-XL DEGRADERS” (Treeline Biosciences, Inc., priority 2022, published 2024).
Read-outs that look alike come from different tables or passages of the source.

Biological target: T1, Human BCL-XL protein (N-terminal HiBiT tagged BCL-XL in HT1080 cells) (Homo sapiens, UniProt Q07817)
T1 construct: expressed in transfected cells; host or cells: HT-1080 (ATCC CCL-121), stably transduced with lentivirus pLV-UBC-N-HiBiT-BCL-XL-PGK-puro and selected with puromycin
Assay: HiBiT based degradation assay
Format: cell-based
Settings: HT1080 cells expressing HiBiT-BCL-XL; for Ymin (6 h) / Ymin (24 h): BCL-XL degradation normalized with DMSO control; for DC50: BCL-XL degradation
How it was run: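 This HiBiT degradation assay measured loss of BCL-XL in HT1080 cells that stably express an N-terminal HiBiT-BCL-XL fusion delivered by lentivirus. Cells were added to compound-spotted 384-well plates, and luminescence was read on a PHERAstar FSX reader. Signal was expressed relative to DMSO controls, curves were fitted by four-parameter logistic regression, and for hook-shaped curves the Ymin point served as the bottom plateau when calculating EC50.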

T1 sequence (Q07817 whole entry): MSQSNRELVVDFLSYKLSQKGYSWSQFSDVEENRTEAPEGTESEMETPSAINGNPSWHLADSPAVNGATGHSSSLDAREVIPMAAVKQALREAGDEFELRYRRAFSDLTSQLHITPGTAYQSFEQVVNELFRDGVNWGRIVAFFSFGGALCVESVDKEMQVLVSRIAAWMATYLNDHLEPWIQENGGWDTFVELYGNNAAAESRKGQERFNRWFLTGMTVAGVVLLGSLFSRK

SMILES	Ymin (6 h)	Ymin (24 h)	DC50 (6 h, read-out: EC50 (6 h)) [nM]	DC50 (24 h, read-out: EC50 (24 h)) [nM]
Cc1cc(Oc2ccc(CCC(=O)Nc3ccc4c(C5CCC(=O)NC5=O)nn(C)c4c3)cc2)ccc1-c1ccc(N2CCc3cccc(C(=O)Nc4nc5ccccc5s4)c3C2)nc1C(=O)O (centres unmarked) [Compound 139, 6-(8-(benzo[d]thiazol-2-ylcarbamoyl)-3,4-dihydroisoquinolin-2(1H)-yl)-3-(4-(4-(3-((3-(2,6-dioxopiperidin-3-yl)-1-methyl-1H-indazol-6-yl)amino)-3-oxopropyl)phenoxy)-2-methylphenyl)picolinic acid]	B (50% ≤ Ymin < 70%)	B (50% ≤ Ymin < 70%)	100 to 1000	100 to 1000
Cc1c(OCCCC2CCN(CC(=O)N3CCN(c4cccc5c(C6CCC(=O)NC6=O)nn(C)c45)CC3)CC2)cccc1-c1ccc(N2CCc3cccc(C(=O)Nc4nc5ccccc5s4)c3C2)nc1C(=O)O (centres unmarked) [Compound 144, 6-[8-(1,3-benzothiazol-2-ylcarbamoyl)-3,4-dihydro-1H-isoquinolin-2-yl]-3-[3-[3-[1-[2-[4-[3-(2,6-dioxo-3-piperidyl)-1-methyl-indazol-7-yl]piperazin-1-yl]-2-oxo-ethyl]-4-piperidyl]propoxy]-2-methyl-phenyl]pyridine-2-carboxylic acid]	A (Ymin < 50%)	A (Ymin < 50%)	< 100	< 100
Cc1c(OCCC2CCN(CC(=O)N3CCN(c4cccc5c(C6CCC(=O)NC6=O)nn(C)c45)CC3)CC2)cccc1-c1ccc(N2CCc3cccc(C(=O)Nc4nc5ccccc5s4)c3C2)nc1C(=O)O (centres unmarked) [Compound 145, 6-(8-(benzo[d]thiazol-2-ylcarbamoyl)-3,4-dihydroisoquinolin-2(1H)-yl)-3-(3-(2-(1-(2-(4-(3-(2,6-dioxopiperidin-3-yl)-1-methyl-1H-indazol-7-yl)piperazin-1-yl)-2-oxoethyl)piperidin-4-yl)ethoxy)-2-methylphenyl)picolinic acid]	B (50% ≤ Ymin < 70%)	A (Ymin < 50%)	< 100	< 100
Cc1c(O[C@H]2CC[C@H](CCC(=O)N3CCN(c4cccc5c(C6CCC(=O)NC6=O)nn(C)c45)CC3)CC2)cccc1-c1ccc(N2CCc3cccc(C(=O)Nc4nc5ccccc5s4)c3C2)nc1C(=O)O (some centres unmarked) [Compound 146a, 6-(8-(benzo[d]thiazol-2-ylcarbamoyl)-3,4-dihydroisoquinolin-2(1H)-yl)-3-(3-(((1r,4r)-4-(3-(4-(3-(2,6-dioxopiperidin-3-yl)-1-methyl-1H-indazol-7-yl)piperazin-1-yl)-3-oxopropyl)cyclohexyl)oxy)-2-methylphenyl)picolinic acid]	A (Ymin < 50%)	A (Ymin < 50%)	100 to 1000	< 100
Cc1c(O[C@H]2CC[C@@H](CCC(=O)N3CCN(c4cccc5c(C6CCC(=O)NC6=O)nn(C)c45)CC3)CC2)cccc1-c1ccc(N2CCc3cccc(C(=O)Nc4nc5ccccc5s4)c3C2)nc1C(=O)O (some centres unmarked) [Compound 146b, 6-(8-(benzo[d]thiazol-2-ylcarbamoyl)-3,4-dihydroisoquinolin-2(1H)-yl)-3-(3-(((1s,4s)-4-(3-(4-(3-(2,6-dioxopiperidin-3-yl)-1-methyl-1H-indazol-7-yl)piperazin-1-yl)-3-oxopropyl)cyclohexyl)oxy)-2-methylphenyl)picolinic acid]		B (50% ≤ Ymin < 70%)		100 to 1000
Cc1c(O[C@H]2CC[C@H](CCCN3CCN(c4cccc5c(C6CCC(=O)NC6=O)nn(C)c45)CC3)CC2)cccc1-c1ccc(N2CCc3cccc(C(=O)Nc4nc5ccccc5s4)c3C2)nc1C(=O)O (some centres unmarked) [Compound 147a, 6-(8-(benzo[d]thiazol-2-ylcarbamoyl)-3,4-dihydroisoquinolin-2(1H)-yl)-3-(3-(((1s,4r)-4-(3-(4-(3-(2,6-dioxopiperidin-3-yl)-1-methyl-1H-indazol-7-yl)piperazin-1-yl)propyl)cyclohexyl)oxy)-2-methylphenyl)picolinic acid]	B (50% ≤ Ymin < 70%)	A (Ymin < 50%)	< 100	< 100
Cc1c(O[C@H]2CC[C@@H](CCCN3CCN(c4cccc5c(C6CCC(=O)NC6=O)nn(C)c45)CC3)CC2)cccc1-c1ccc(N2CCc3cccc(C(=O)Nc4nc5ccccc5s4)c3C2)nc1C(=O)O (some centres unmarked) [Compound 147b, 6-(8-(benzo[d]thiazol-2-ylcarbamoyl)-3,4-dihydroisoquinolin-2(1H)-yl)-3-(3-(((1r,4s)-4-(3-(4-(3-(2,6-dioxopiperidin-3-yl)-1-methyl-1H-indazol-7-yl)piperazin-1-yl)propyl)cyclohexyl)oxy)-2-methylphenyl)picolinic acid]		B (50% ≤ Ymin < 70%)		< 100

Results, then the molecule that gave them:

Ymin (6 h)	Ymin (24 h)	DC50 (6 h, read-out: EC50 (6 h)) [nM]	DC50 (24 h, read-out: EC50 (24 h)) [nM]	SMILES
B (50% ≤ Ymin < 70%)	A (Ymin < 50%)	< 100	< 100	Cc1c(OCCCCCCCN2CCN(c3ccc4c(C5CCC(=O)NC5=O)nn(C)c4c3)CC2)cccc1-c1ccc(N2CCc3cccc(C(=O)Nc4nc5ccccc5s4)c3C2)nc1C(=O)O (centres unmarked) [Compound 137, 6-(8-(benzo[d]thiazol-2-ylcarbamoyl)-3,4-dihydroisoquinolin-2(1H)-yl)-3-(3-((7-(4-(3-(2,6-dioxopiperidin-3-yl)-1-methyl-1H-indazol-6-yl)piperazin-1-yl)heptyl)oxy)-2-methylphenyl)picolinic acid]
B (50% ≤ Ymin < 70%)	B (50% ≤ Ymin < 70%)	1000 to 10000	< 100	Cc1c(O[C@H]2CC[C@H](CCC(=O)N3CCN(c4ccc5c(C6CCC(=O)NC6=O)nn(C)c5c4)CC3)CC2)cccc1-c1ccc(N2CCc3cccc(C(=O)Nc4nc5ccccc5s4)c3C2)nc1C(=O)O (some centres unmarked) [Compound 138a, 6-(8-(benzo[d]thiazol-2-ylcarbamoyl)-3,4-dihydroisoquinolin-2(1H)-yl)-3-(3-(((1r,4r)-4-(3-(4-(3-(2,6-dioxopiperidin-3-yl)-1-methyl-1H-indazol-6-yl)piperazin-1-yl)-3-oxopropyl)cyclohexyl)oxy)-2-methylphenyl)picolinic acid]
	B (50% ≤ Ymin < 70%)		< 100	Cc1c(O[C@H]2CC[C@@H](CCC(=O)N3CCN(c4ccc5c(C6CCC(=O)NC6=O)nn(C)c5c4)CC3)CC2)cccc1-c1ccc(N2CCc3cccc(C(=O)Nc4nc5ccccc5s4)c3C2)nc1C(=O)O (some centres unmarked) [Compound 138b, 6-(8-(benzo[d]thiazol-2-ylcarbamoyl)-3,4-dihydroisoquinolin-2(1H)-yl)-3-(3-(((1s,4s)-4-(3-(4-(3-(2,6-dioxopiperidin-3-yl)-1-methyl-1H-indazol-6-yl)piperazin-1-yl)-3-oxopropyl)cyclohexyl)oxy)-2-methylphenyl)picolinic acid]
A (Ymin < 50%)	A (Ymin < 50%)	< 100	< 100	Cc1c(OCCCN2CCN(CC(=O)N3CCN(c4ccc5c(C6CCC(=O)NC6=O)nn(C)c5c4)CC3)CC2)cccc1-c1ccc(N2CCc3cccc(C(=O)Nc4nc5ccccc5s4)c3C2)nc1C(=O)O (centres unmarked) [Compound 140, 6-(8-(Benzo[d]thiazol-2-ylcarbamoyl)-3,4-dihydroisoquinolin-2(1H)-yl)-3-(3-(3-(4-(2-(4-(3-(2,6-dioxopiperidin-3-yl)-1-methyl-1H-indazol-6-yl)piperazin-1-yl)-2-oxoethyl)piperazin-1-yl)propoxy)-2-methylphenyl)picolinic acid]
B (50% ≤ Ymin < 70%)	A (Ymin < 50%)	< 100	< 100	Cc1c(OCCN2CCN(CC(=O)N3CCN(c4ccc5c(C6CCC(=O)NC6=O)nn(C)c5c4)CC3)CC2)cccc1-c1ccc(N2CCc3cccc(C(=O)Nc4nc5ccccc5s4)c3C2)nc1C(=O)O (centres unmarked) [Compound 141, 6-(8-(benzo[d]thiazol-2-ylcarbamoyl)-3,4-dihydroisoquinolin-2(1H)-yl)-3-(3-(2-(4-(2-(4-(3-(2,6-dioxopiperidin-3-yl)-1-methyl-1H-indazol-6-yl)piperazin-1-yl)-2-oxoethyl)piperazin-1-yl)ethoxy)-2-methylphenyl)picolinic acid]
A (Ymin < 50%)	A (Ymin < 50%)	< 100	< 100	Cc1c(OCCCC2CCN(CC(=O)N3CCN(c4ccc5c(C6CCC(=O)NC6=O)nn(C)c5c4)CC3)CC2)cccc1-c1ccc(N2CCc3cccc(C(=O)Nc4nc5ccccc5s4)c3C2)nc1C(=O)O (centres unmarked) [Compound 142, 6-(8-(benzo[d]thiazol-2-ylcarbamoyl)-3,4-dihydroisoquinolin-2(1H)-yl)-3-(3-(3-(1-(2-(4-(3-(2,6-dioxopiperidin-3-yl)-1-methyl-1H-indazol-6-yl)piperazin-1-yl)-2-oxoethyl)piperidin-4-yl)propoxy)-2-methylphenyl)picolinic acid]
A (Ymin < 50%)	A (Ymin < 50%)	< 100	< 100	Cc1c(OCCC2CCN(CC(=O)N3CCN(c4ccc5c(C6CCC(=O)NC6=O)nn(C)c5c4)CC3)CC2)cccc1-c1ccc(N2CCc3cccc(C(=O)Nc4nc5ccccc5s4)c3C2)nc1C(=O)O (centres unmarked) [Compound 143, 6-(8-(benzo[d]thiazol-2-ylcarbamoyl)-3,4-dihydroisoquinolin-2(1H)-yl)-3-(3-(2-(1-(2-(4-(3-(2,6-dioxopiperidin-3-yl)-1-methyl-1H-indazol-6-yl)piperazin-1-yl)-2-oxoethyl)piperidin-4-yl)ethoxy)-2-methylphenyl)picolinic acid]
